This is an account of results in US5004756A, “Anti-cancer activity potentiator” (priority 1988, dated 1991).

Values after ≈ are worked out from the molar mass of the structure shown. Like-named read-outs stand apart in the source and are kept apart here.

In general, IC50 refers to the concentration that gives 50% inhibition.

Series [1] is described as follows: Particle charge / formation of lipid emulsion. It counts as physicochemical. The source says:
To secure fine particles of 1 micron or below in size which can actually be administered as a lipid emulsion, the particles should have a charge within the range of +20 mV to +50 mV.

Series [2] concerns PLC/S. In words: Anti-cancer activity potentiating action, colony formation, PLC/S parent cells (A-III). The class given is cell-based, human. The note with it: for IC50: Homo sapiens. The method, then: (§1) The anti-cancer activity potentiating action of the malate of formula (I) was examined using Chinese hamster cells (sensitive cell line V79/S and ADM-resistant cell line V79/ADM), human hepatoma cells (sensitive cell line PLC/S and colchicin-resistant cell line PLC/Col) and mouse leukemia cells (sensitive cell line L5178Y/S) and aclarubicin-resistant cell line L5178Y/ACR).
(§2) Of these tumor cells, the sensitive cells (400 cells) and the resistant cells (600 cells) were each incubated in 10 ml of Eagle's MEM medium containing 10% bovine serum for 24 hours, and then each of the test drugs indicated in Table 6 was added. Thereafter, the incubation was carried out for 9 days. The concentration (IC50 : micrograms/ml) of the test drug required to inhibit 50% of the colony formation (proliferation) of the tumor cells was calculated.
(§3) As anti-cancer agents, adriamycin (ADM) and peplomycin (PEP) were used in combination with the malate of formula (I) (5 micrograms/ml).

In series [3] the test system is PLC/Col. Nature of the series: Colony formation (proliferation) inhibition, colchicin-resistant human hepatoma cells (A-I Part 1). It counts as cell-based. As to conditions: Homo sapiens, 216 h. How it is done: (§4) Sensitive cell line V79/S and ADM-resistant cell line V79/ADM of the Chinese hamster were used, and sensitive cell line PLC/S and cholchicin-resistant cell line PLC/Col, as human hepatoma cells.
(§5) The sensitive cell lines (400 cells) or the resistant cell lines (600 cells) were each incubated for 24 hours in 10 ml of Eagle's MEM medium containing 10% bovine serum. Each of the drugs indicated in Table 1 below was dissolved in ethanol, and 50 microliters of the resulting solution was added to the medium. The incubation was further carried out for 9 days. The concentration of the drug which inhibits 50% of the colony formation (proliferation) of the tumor cells was calculated.
(§6) V79/S and V79/ADM were tested by using all of the drugs described above, but PLC/S and PLC/Col were tested by using only the malate of formula (I), adriamycin and peplomycin.
(§7) The concentrations (micrograms/ml) required to inhibit 50% of the proliferation of the tumor cells, expressed by IC50, are shown in Table 1.

Series [4] concerns L5178Y/S. In words: Anti-cancer activity potentiating action, colony formation, mouse leukemia sensitive cells (table head prints PLC/S). As to conditions: head prints PLC/S (parent cells); for IC50: Mus musculus, L5178Y. It counts as cell-based. How it is done: as §1, §2
(§8) Adriamycin (ADM) and aclarubicin (ACR) as anti-cancer agents were used in combination with 20 micrograms/ml of the malate of formula (I).

The test system of series [5] is clinically isolated human cancer cells (lung adenocarcinoma, lung squamous cell carcinoma, osteosarcoma, ovarian carcinoma). In words: Anti-tumor activity on clinically isolated human cancer cells, morphological changes (A-I Part 2). The note with it: 0.3 μg/ml. The class given is cell-based.
Procedure: Lung adenocarcinoma, lung squamous cell carcinoma, osteosarcoma and ovarian carcinoma were selected as clinically isolated human cancer cells, and the anti-tumor activities of various drugs were examined. Specifically, various tumor tissues were individually cut to thin pieces by a razor, and by washing in saline by using a 1 mm mesh, the connective tissues were removed. The resulting solution was centrifuged at 1000 rpm for 1 minute to remove necrotizing substances. Washing with saline gave tumor cells.
They were incubated at 37° for 4 to 8 hours. Thereafter, pumping was carried out to disperse the tissue pieces. Then, centrifugation at 1000 rpm for 5 minutes, cell coating and Giemsa staining were performed. The anti-tumor activity of each drug was examined on the basis of observation of the morphological changes of the tumor cells under a microscope.
The experiment was conducted on two examples of each tumor cells (total 8 examples).
For series [6], the system named is V79/ADM. In words: Colony formation (proliferation) inhibition, ADM-resistant Chinese hamster cells (A-I Part 1). The class given is cell-based. As to conditions: Cricetulus griseus, 216 h. How it is done:
as §4, §5, §6, §7

Series [7] has as its system human tumor cells (muscle fibrosarcoma HT-1080). Nature of the series: Anti-cancer activity potentiating action in nude mice with HT-1080 (A-VI). The class given is in vivo, human tumor in ICR nude mice. As to conditions: ADM 4 mg/kg i.v., days 5, 10, 15, 20; day 36. The method, then: ICR nude mice, 6 per group, were used, and the experiment was conducted substantially in accordance with the procedure described in A-V.
As tumor cells, human tumor cells (muscle fibrosarcoma HT-1080) were used, and 5 days after the transplantation, drug administration was started.
The administration was further performed every 5 days from the day of starting the administration, and the total number of administrations was therefore 4.
Mitomycin C (MMC) was tested by the same way as above.
Thirty-six days after the transplantation of the tumor, a tumor mass was extracted and its weight was measured. From the difference of the weight of the tumor from the non-treated control group, the tumor growth inhibition ratio (%) was calculated.

The test system of series [8] is Human stomach cancer cell line H-81. Nature of the series: Anti-cancer activity potentiating action in nude mice with human stomach cancer H-81 (A-V). It counts as in vivo, human tumor in ICR nude mice. From the text: ICR nude mice (4-5 weeks old; 7 per group) were used. Human stomach cancer cell line H-81 was used as tumor cells. Tissue pieces, 2 mm in square, were taken, and transplanted subcutaneously to the right back portion of the nude mice. […] The sequence of the drug administration was as follows: […] The administration was further repeated every five days from the day on which the administration was first carried out. The total number of administrations of each drug was four. […] The measurement was made on the days on which the drugs were administered, and four weeks after the start of drug administration.

For series [9], the system named is V79/S. In words: Anti-cancer activity potentiating action, colony formation, V79/S parent cells (A-III). The class given is cell-based, Chinese hamster. The note with it: V79/S; for IC50: Cricetulus griseus. The method, then:
as §1, §2
(§9) (A) Chinese hamster V79 cells
(§10) As anti-cancer agents, there were used adriamycin (ADM), aclarubicin (ACR), actinomycin D (ACD), 5-fluorouracil (5-FU), cytarabin (Ara-C), cisplatin (CDDP), methotrexate (MTX), mitomycin C (MMC), nimustine (ACNU), mitoxantrone, etoposide ([…]), vincristine (VCR), bleomycin (BLM) and peplomycin (PEP). For the sensitive cells, the anti-cancer agents were used in combination with 10 micrograms/ml of the malate of formula (I), and for the resistant cells, the anti-cancer agents were used in combination with the malate of formula (I) 3 micrograms/ml, 5 micrograms/ml, and 10 micrograms/ ml.

Series [10] has as its system V79/S. In words: Colony formation (proliferation) inhibition, sensitive Chinese hamster cells (A-I Part 1). The class given is cell-based. As to conditions: Cricetulus griseus, 216 h. The method, then:
as §4, §5, §6, §7

Series [11] deals with L5178Y/ACR. In words: Anti-cancer activity potentiating action, colony formation, aclarubicin-resistant mouse leukemia cells (table head prints PLC/ACR). The class given is cell-based. As to conditions: for IC50: Mus musculus, L5178Y. How it is done: as §1, §2, §8
The subject of series [12] is V79/ADM. In words: Anti-cancer activity potentiating action, colony formation, V79/ADM resistant cells (A-III). The class given is cell-based, Chinese hamster. As to conditions: V79/ADM; for IC50: Cricetulus griseus. How it is done: as §1, §2, §9, §10
Series [13] concerns PLC/Col. In words: Anti-cancer activity potentiating action, colony formation, PLC/Col resistant cells (A-III). It counts as cell-based, human. The note with it: for IC50: Homo sapiens. How it is done: as §1, §2, §3
Series [14] concerns Lewis lung cancer cells. In words: Life prolongation of BDF1 mice with Lewis lung cancer (A-II Part 2). It counts as in vivo, mouse (male BDF1). How it is done: Male BDF1 mice having a body weight of 20±2 g (6 per group) were used, and as tumor cells, Lewis lung cancer cells were transplanted under the skin of the side abdomen of each of the mice at a rate of 10^5 cells. […] The life prolongation rate of the mice in each group was determined by the treated group/non-treated control group (T/C %).

Series [15] relates to PLC/S. In words: Colony formation (proliferation) inhibition, sensitive human hepatoma cells (A-I Part 1). The class given is cell-based. As to conditions: Homo sapiens, 216 h. The method, then: as §4, §5, §6, §7
Series [16] relates to B16 melanoma cells. In words: Life prolongation of BDF1 mice with B16 melanoma (A-II Part 1). It counts as in vivo, mouse (male BDF1). As to conditions: 0.45 mg/kg i.p., three times every 4 days. How it is done:
Three to eight male BDF1 mice having a body weight of 20±3 g were used, and B16 melanoma cells were selected as tumor cells. The melanoma cells were homogenized, and the homogenate was transplanted subcutaneously to the mice in an amount of 0.5 ml/mouse. After 7 days, the malate of formula (I) in accordance with this invention and an anti-cancer agent, neocartinostatin (NCS), were intraperitoneally administered either singly or in combination three times every 4 days in a dose of 5 mg/kg and 0.45 mg/kg for each time. The life prolonging rate of the mice was determined by the treated group/non-treated control group (T/C %).

The mark [17] stands for this setting: read-out: IC50, anti-cancer agent alone.
The mark [18] stands for this setting: read-out: IC50 in combination with compound (I).
[19] abbreviates: alone, Table 7 lower part, read-out: IC50, anti-cancer agent alone.
Setting [20] is: with compound (I) 20 μg/ml, read-out: IC50 in combination with compound (I).
Where [21] appears, read: alone, Table 6, read-out: IC50, anti-cancer agent alone.
The mark [22] stands for this setting: with compound (I) 10 μg/ml, read-out: IC50 in combination with compound (I).

In the case of `COc1ccc(CNCCN(CC=C(C)CCC=C(C)CCC=C(C)CCC=C(C)CCC=C(C)CCC=C(C)CCC=C(C)CCC=C(C)CCC=C(C)C)Cc2ccc(OC)c(OC)c2)cc1OC` [compound (II), N-solanesyl-N,N'-bis(3,4-dimethoxybenzyl)ethylenediamine], the “Formation of a lipid emulsion” value in series [1] is “cannot be formed into a lipid emulsion”. Also, the “Particle charge within +20 mV to +50 mV / aggregation” value in series [1] (lipid emulsion particles) is “particle aggregation occurs”.

For the molecule `COc1cccc2c1C(=O)c1c(O)c3c(c(O)c1C2=O)C[C@@](O)(C(=O)CO)C[C@@H]3O[C@H]1C[C@H](N)[C@H](O)[C@H](C)O1` [ADM, adriamycin], the IC50 in series [2] (setting [17]) turned out to be 0.005 µg/mL; in [2] (setting [18]), 0.0053 µg/mL; in [3] it was 0.08 µg/mL (≈ 0.147 µM); in series [4] (setting [19]), 0.048 µg/mL; in series [4] (setting [20]) it was 0.016 µg/mL; in series [6] it was 8.8 µg/mL (≈ 16.2 µM). Further, the IC50 is 0.057 µg/mL in series [9] (setting [21]); 0.008 µg/mL in series [9] (setting [22]); 0.057 µg/mL (≈ 0.105 µM) in [10]; 0.06 µg/mL in series [11] (setting [19]); 0.18 µg/mL in series [11] (setting [20]); 8.8 µg/mL in series [12] (setting [21]). For the same molecule, the IC50 in series [12] (setting [22]) is 0.25 µg/mL; in [13] (setting [17]) it was 0.08 µg/mL; in series [13] (setting [18]), 0.027 µg/mL; in series [15], 0.005 µg/mL (≈ 0.0092 µM). Also, the Potentiation activity in series [2] (PLC/S, with compound (I) 5 μg/ml) is listed as 1.0 times; in [4] (with compound (I) 20 μg/ml), 3.0 times; in series [9] (with compound (I) 10 μg/ml), 7.1 times; in series [11] (with compound (I) 20 μg/ml) it was 3.7 times; in series [12] (with compound (I) 10 μg/ml) it was 35.2 times; in series [13] (PLC/Col, with compound (I) 5 μg/ml), 3.0 times. In addition, the “Efficacy ratio (rated significant by Fisher's test)” value in series [5] is on record as 3/8. Also, in series [7], the “Tumor growth inhibition ratio” value came out at 96.1%. In addition, the Tumor weight in series [7] turned out to be 0.14 ± 0.32. Moreover, the “Tumor growth inhibition rate” value amounted to 45.2% in series [8] (2 mg/kg i.v., 4 weeks later, **p < 0.1 vs control); 16.5% in series [8] (2 mg/kg i.v., 5 days later); 45.7% in series [8] (2 mg/kg i.v., 10 days later); 49.5% in series [8] (2 mg/kg i.v., 15 days later); 59.7% in series [8] (ADM 5 mg/kg i.v. singly, 4 weeks later, *p < 0.5 vs control). Besides, the “T/C (life prolongation rate)” value is recorded as 218% in series [14] (1.25 mg/kg i.v.), 173% in series [14] (2.5 mg/kg i.v. (lipid emulsion calculated as malate)) and 241% in [14] (5.0 mg/kg i.v. (lipid emulsion calculated as malate)).

B1: neocartinostatin (protein, UniProt P0A3R9 35-147, looked up)
Neocarzinostatin: AAPTATVTPSSGLSDGTVVKVAGAGLQAGTAYDVGQCAWVDTGVLACNPADFSSVTADANGSASTSLTVRRSFEGFLFDGTRWGTVDCTTAACQVGLSDAAGNGPEGVAISFN
As for B1, the “T/C (life prolonging rate at M.S.T.)” value in series [16] is listed as 135%.
